System: vasopressor response of angiotensin II
Assay: AII Challenge: antagonism of angiotensin II vasopressor response
Format: in vivo
Conditions: for inhibition in vivo at 1 mg/kg / inhibition in vivo at 5 mg/kg: Rattus norvegicus; for inhibition in vivo at 1 mg/kg: iv; for inhibition in vivo at 5 mg/kg: po
Method in brief: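 Percent antagonism is based on the systolic blood pressure rise (mmHg) to i.v. angiotensin II at 0.05 and 0.1 ug/kg. Each rat's own predose response was taken as 100%. Challenges were repeated from 30 to 300 min after i.v., i.p. or oral compound in cannulated conscious male SHR, 16-20 weeks old.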

[1] = 1 mg/kg i.v., AII 0.05 mcg/kg IV, 30 min post dose
[2] = 1 mg/kg i.v., AII 0.05 mcg/kg IV, 60 min post dose
[3] = 1 mg/kg i.v., AII 0.05 mcg/kg IV, 90 min post dose
[4] = 1 mg/kg i.v., AII 0.05 mcg/kg IV, 120 min post dose
[5] = 1 mg/kg i.v., AII 0.05 mcg/kg IV, 180 min post dose
[6] = 1 mg/kg i.v., AII 0.05 mcg/kg IV, 240 min post dose
[7] = 1 mg/kg i.v., AII 0.05 mcg/kg IV, 300 min post dose
[8] = 1 mg/kg i.v., AII 0.1 mcg/kg IV, 30 min post dose
[9] = 1 mg/kg i.v., AII 0.1 mcg/kg IV, 60 min post dose
[10] = 1 mg/kg i.v., AII 0.1 mcg/kg IV, 90 min post dose
[11] = 1 mg/kg i.v., AII 0.1 mcg/kg IV, 120 min post dose
[12] = 1 mg/kg i.v., AII 0.1 mcg/kg IV, 180 min post dose
[13] = 1 mg/kg i.v., AII 0.1 mcg/kg IV, 240 min post dose
[14] = 1 mg/kg i.v., AII 0.1 mcg/kg IV, 300 min post dose
[15] = 0.5 h, 1 mg/kg i.v., AII 0.05 mcg/kg IV, 30 min post dose
[16] = 0.5 h, 1 mg/kg i.v., AII 0.1 mcg/kg IV, 30 min post dose
[17] = 1 h, 1 mg/kg i.v., AII 0.05 mcg/kg IV, 60 min post dose
[18] = 1 h, 1 mg/kg i.v., AII 0.1 mcg/kg IV, 60 min post dose
[19] = 2 h, 1 mg/kg i.v., AII 0.05 mcg/kg IV, 120 min post dose
[20] = 2 h, 1 mg/kg i.v., AII 0.1 mcg/kg IV, 120 min post dose
[21] = 3 h, 1 mg/kg i.v., AII 0.05 mcg/kg IV, 180 min post dose
[22] = 3 h, 1 mg/kg i.v., AII 0.1 mcg/kg IV, 180 min post dose
[23] = 4 h, 1 mg/kg i.v., AII 0.05 mcg/kg IV, 240 min post dose
[24] = 4 h, 1 mg/kg i.v., AII 0.1 mcg/kg IV, 240 min post dose
[25] = 5 h, 1 mg/kg i.v., AII 0.05 mcg/kg IV, 300 min post dose
[26] = 5 h, 1 mg/kg i.v., AII 0.1 mcg/kg IV, 300 min post dose
[27] = […], 1 mg/kg i.v., AII 0.05 mcg/kg IV, 90 min post dose
[28] = […], 1 mg/kg i.v., AII 0.1 mcg/kg IV, 90 min post dose

Which results are given for `CCCCc1nc2ccc([C@@]3(C)C[C@@H]4CCC(C)(C)N4O3)cc2c(=O)n1Cc1ccc(-c2ccccc2-c2nnn[nH]2)cc1` (relative stereo) [Example 66, Cis-2-Butyl-6-(hexahydro-2,6,6-trimethylpyrrolo[1,2-b]isoxazol-2-yl)-3-[[2'-(1H-tetrazol-5-yl)[1,1'-biphenyl]-4-yl]methyl]-4(3H)-quinazolinone]?
Response Average Change [1]: 2.5 mmHg; Response Average Change [2]: 0 mmHg; Response Average Change [3]: 9 mmHg; Response Average Change [4]: 11.5 mmHg; Response Average Change [5]: 15 mmHg; Response Average Change [6]: 12.5 mmHg; Response Average Change [7]: 20 mmHg; Response Average Change [8]: 5 mmHg; Response Average Change [9]: 2.5 mmHg; Response Average Change [10]: 7.5 mmHg; Response Average Change [11]: 7.5 mmHg; Response Average Change [12]: 14 mmHg; Response Average Change [13]: 14 mmHg; Response Average Change [14]: 17.5 mmHg; Response Average Change (5 mg/kg P.O., AII 0.05 mcg/kg IV, 30 min post dose): 10 mmHg; Response Average Change (5 mg/kg P.O., AII 0.05 mcg/kg IV, 60 min post dose): 7.5 mmHg; Response Average Change (5 mg/kg P.O., AII 0.05 mcg/kg IV, 90 min post dose): 3 mmHg; Response Average Change (5 mg/kg P.O., AII 0.05 mcg/kg IV, 120 min post dose): 7.5 mmHg; Response Average Change (5 mg/kg P.O., AII 0.05 mcg/kg IV, 180 min post dose): 5 mmHg; Response Average Change (5 mg/kg P.O., AII 0.05 mcg/kg IV, 240 min post dose): 5 mmHg; Response Average Change (5 mg/kg P.O., AII 0.05 mcg/kg IV, 300 min post dose): 10 mmHg; Response Average Change (5 mg/kg P.O., AII 0.1 mcg/kg IV, 30 min post dose): 21 mmHg; Response Average Change (5 mg/kg P.O., AII 0.1 mcg/kg IV, 60 min post dose): 17.5 mmHg; Response Average Change (5 mg/kg P.O., AII 0.1 mcg/kg IV, 90 min post dose): 2.5 mmHg; Response Average Change (5 mg/kg P.O., AII 0.1 mcg/kg IV, 120 min post dose): 7.5 mmHg; Response Average Change (5 mg/kg P.O., AII 0.1 mcg/kg IV, 180 min post dose): 12.5 mmHg; Response Average Change (5 mg/kg P.O., AII 0.1 mcg/kg IV, 240 min post dose): 10 mmHg; Response Average Change (5 mg/kg P.O., AII 0.1 mcg/kg IV, 300 min post dose): 10 mmHg; inhibition in vivo at 1 mg/kg [15]: 93%; inhibition in vivo at 1 mg/kg [16]: 89%; inhibition in vivo at 1 mg/kg [17]: 100%; inhibition in vivo at 1 mg/kg [18]: 94%; inhibition in vivo at 1 mg/kg [19]: 69%; inhibition in vivo at 1 mg/kg [20]: 83%; inhibition in vivo at 1 mg/kg [21]: 60%; inhibition in vivo at 1 mg/kg [22]: 68%; inhibition in vivo at 1 mg/kg [23]: 67%; inhibition in vivo at 1 mg/kg [24]: 68%; inhibition in vivo at 1 mg/kg [25]: 47%; inhibition in vivo at 1 mg/kg [26]: 60%; inhibition in vivo at 1 mg/kg [27]: 76%; inhibition in vivo at 1 mg/kg [28]: 83%; inhibition in vivo at 5 mg/kg (0.5 h, 5 mg/kg P.O., AII 0.05 mcg/kg IV, 30 min post dose): 77%; inhibition in vivo at 5 mg/kg (0.5 h, 5 mg/kg P.O., AII 0.1 mcg/kg IV, 30 min post dose): 52%; inhibition in vivo at 5 mg/kg (1 h, 5 mg/kg P.O., AII 0.05 mcg/kg IV, 60 min post dose): 83%; inhibition in vivo at 5 mg/kg (1 h, 5 mg/kg P.O., AII 0.1 mcg/kg IV, 60 min post dose): 60%; inhibition in vivo at 5 mg/kg (2 h, 5 mg/kg P.O., AII 0.05 mcg/kg IV, 120 min post dose): 83%; inhibition in vivo at 5 mg/kg (2 h, 5 mg/kg P.O., AII 0.1 mcg/kg IV, 120 min post dose): 83%; inhibition in vivo at 5 mg/kg (3 h, 5 mg/kg P.O., AII 0.05 mcg/kg IV, 180 min post dose): 89%; inhibition in vivo at 5 mg/kg (3 h, 5 mg/kg P.O., AII 0.1 mcg/kg IV, 180 min post dose): 72%; inhibition in vivo at 5 mg/kg (4 h, 5 mg/kg P.O., AII 0.05 mcg/kg IV, 240 min post dose): 89%; inhibition in vivo at 5 mg/kg (4 h, 5 mg/kg P.O., AII 0.1 mcg/kg IV, 240 min post dose): 77%; inhibition in vivo at 5 mg/kg (5 h, 5 mg/kg P.O., AII 0.05 mcg/kg IV, 300 min post dose): 77%; inhibition in vivo at 5 mg/kg (5 h, 5 mg/kg P.O., AII 0.1 mcg/kg IV, 300 min post dose): 77%; inhibition in vivo at 5 mg/kg ([…], 5 mg/kg P.O., AII 0.05 mcg/kg IV, 90 min post dose): 93%; inhibition in vivo at 5 mg/kg ([…], 5 mg/kg P.O., AII 0.1 mcg/kg IV, 90 min post dose): 94%

For `CCCCc1nc2ccc([C@@]3(CC)C[C@@H]4CCCN4O3)cc2c(=O)n1Cc1ccc(-c2ccccc2-c2nnn[nH]2)cc1` (relative stereo) [Example 71, Cis-2-butyl-6-(2-ethylhexahydropyrrolo[1,2b]isoxazol-2-yl)-3-[[2'-[1-(1H-tetrazol-5-yl)][1,1'-biphenyl]-4-yl]methyl]-4(3H)-quinazolinone], which “Response Average Change” value [1] is on record?
Its value is 20 mmHg.

And the “Response Average Change” value [2]?
The value was 5 mmHg.

And the “Response Average Change” value [3]?
Its value is 30 mmHg.

What about the “Response Average Change” value [4] of the same molecule?
The value was 15 mmHg.

What about the “Response Average Change” value [5] of the same molecule?
Its value is 15 mmHg.

And the “Response Average Change” value [6]?
The value was 15 mmHg.

And the “Response Average Change” value [7]?
Its value is 20 mmHg.

And the “Response Average Change” value [8]?
Its value is 15 mmHg.

And the “Response Average Change” value [9]?
Its value is 15 mmHg.

What about the “Response Average Change” value [10] of the same molecule?
The value was 20 mmHg.

And the “Response Average Change” value [11]?
The value was 10 mmHg.

What about the “Response Average Change” value [12] of the same molecule?
Its value is 15 mmHg.

What about the “Response Average Change” value [13] of the same molecule?
Its value is 22.5 mmHg.

What about the “Response Average Change” value [14] of the same molecule?
The value was 23.5 mmHg.

What about the inhibition in vivo at 1 mg/kg [15] of the same molecule?
The inhibition in vivo at 1 mg/kg was 53%.

And the inhibition in vivo at 1 mg/kg [16]?
The inhibition in vivo at 1 mg/kg was 60%.

What about the inhibition in vivo at 1 mg/kg [17] of the same molecule?
The inhibition in vivo at 1 mg/kg was 88%.

And the inhibition in vivo at 1 mg/kg [18]?
The inhibition in vivo at 1 mg/kg was 60%.

What about the inhibition in vivo at 1 mg/kg [19] of the same molecule?
Its inhibition in vivo at 1 mg/kg is 65%.

And the inhibition in vivo at 1 mg/kg [20]?
The inhibition in vivo at 1 mg/kg was 73%.

And the inhibition in vivo at 1 mg/kg [21]?
Its inhibition in vivo at 1 mg/kg is 65%.

And the inhibition in vivo at 1 mg/kg [22]?
Its inhibition in vivo at 1 mg/kg is 60%.

And the inhibition in vivo at 1 mg/kg [23]?
Its inhibition in vivo at 1 mg/kg is 65%.

And the inhibition in vivo at 1 mg/kg [24]?
The inhibition in vivo at 1 mg/kg was 40%.

And the inhibition in vivo at 1 mg/kg [25]?
The inhibition in vivo at 1 mg/kg was 53%.

And the inhibition in vivo at 1 mg/kg [26]?
Its inhibition in vivo at 1 mg/kg is 37%.

And the inhibition in vivo at 1 mg/kg [27]?
The inhibition in vivo at 1 mg/kg was 29%.

What about the inhibition in vivo at 1 mg/kg [28] of the same molecule?
The inhibition in vivo at 1 mg/kg was 47%.

Reference: patent publication US5358951A, “Angiotensin II receptor blocking 2, 3, 6 substituted quinazolinones” (American Cyanamid Company, priority 1993, dated 1994)
